Reference: ChEMBL document CHEMBL5728326, “Aminopyridine derivatives and their use as selective ALK-2 inhibitors” (2021)

Assays:
[1] = target: Activin receptor type-1-like (Homo sapiens, UniProt P37023)
[2] = target: Bone morphogenetic protein receptor type-1B (Homo sapiens, UniProt O00238)
Chain of Bone morphogenetic protein receptor type-1B (O00238 14-502 limits assumed, change not shown): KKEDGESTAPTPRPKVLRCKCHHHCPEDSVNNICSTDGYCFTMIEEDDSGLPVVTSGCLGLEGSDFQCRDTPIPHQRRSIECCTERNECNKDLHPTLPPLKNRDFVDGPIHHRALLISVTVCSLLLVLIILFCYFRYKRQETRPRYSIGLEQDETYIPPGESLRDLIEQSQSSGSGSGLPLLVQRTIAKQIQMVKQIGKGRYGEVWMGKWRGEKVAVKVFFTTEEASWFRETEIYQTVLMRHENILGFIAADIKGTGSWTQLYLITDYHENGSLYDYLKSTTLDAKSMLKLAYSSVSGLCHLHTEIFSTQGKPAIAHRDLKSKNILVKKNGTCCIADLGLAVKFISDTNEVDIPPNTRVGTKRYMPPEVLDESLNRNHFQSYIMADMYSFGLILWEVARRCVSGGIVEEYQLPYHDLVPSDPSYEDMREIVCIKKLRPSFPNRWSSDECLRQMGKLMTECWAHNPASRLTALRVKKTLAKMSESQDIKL

Chain of Activin receptor type-1-like (P37023 22-503 limits assumed, change not shown): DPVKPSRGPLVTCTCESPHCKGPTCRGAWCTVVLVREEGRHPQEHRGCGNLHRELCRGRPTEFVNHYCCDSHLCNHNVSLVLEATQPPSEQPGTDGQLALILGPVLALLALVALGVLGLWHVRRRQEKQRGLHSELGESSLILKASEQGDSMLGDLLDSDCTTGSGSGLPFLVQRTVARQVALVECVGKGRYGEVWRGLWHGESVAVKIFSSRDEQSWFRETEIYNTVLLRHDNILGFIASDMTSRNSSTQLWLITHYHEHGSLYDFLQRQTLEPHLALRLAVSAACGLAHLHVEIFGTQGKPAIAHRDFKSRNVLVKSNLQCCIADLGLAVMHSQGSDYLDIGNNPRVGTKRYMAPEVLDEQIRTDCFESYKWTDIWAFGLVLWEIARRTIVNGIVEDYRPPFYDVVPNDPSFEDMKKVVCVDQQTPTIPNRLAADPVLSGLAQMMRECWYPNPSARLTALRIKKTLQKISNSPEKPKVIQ

- IC50 [1]: 0.89 µM
- IC50 [2]: 10 µM
SMILES: NC(=O)c1ccc(-c2cnc(N)c(C(=O)N[C@H]3CC[C@@H](O)CC3)c2)cc1
